This note sets out measurements from patent US9115092B2, “Substituted quinazoline and pyrido-pyrimidine derivatives” (Asana Biosciences, LLC, priority 2010, dated 2015).

Molecules are shown by their SMILES.

Assay [1] has as its target T1, PI3Kα (wild-type), P110/P85α (Homo sapiens, UniProt P42336).
T1 construct: made in house; host or cells: SF9 insect cells
In words: PI3 Kinase TR-FRET assay, PI3Kα (wild-type). In kind it is biochemical. The method in brief:
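Sf9-expressed His-purified P110/P85α (5 ng) preincubated 60 min RT with compound and PIP2 in buffer with 40 mM MgCl2, 5 mM DTT; reaction started with ATP (PIP2 and ATP both 10 μM), 30 min RT. PIP3 detected by TR-FRET displacement, 665/615 nm ratio; IC50 from dose-response curves.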
Background: Time-resolved FRET reads energy transfer from a long-lived donor to a nearby acceptor.

A further assay addresses T2, mTOR kinase (Homo sapiens, UniProt P42345).
T2 construct: purchased Millipore, USA
Nature of the assay: mTOR kinase TR-FRET assay. In kind it is biochemical. The following applies: read-out: mTO R. The essentials:
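Compounds preincubated 60 min with mTOR (5 ng) in HEPES pH 7.5, EGTA, MnCl2; ULight-p70 S6K Thr389 peptide (50 nM) and ATP (20 μM) then added, 60 min at room temperature. EDTA-stopped, Eu-anti-phospho antibody detection by TR-FRET (665/615 nm); IC50 from variable-slope sigmoidal fit.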

The test system of assay [2] is pS6RP(S235/236), PC3 cells. Nature of the assay: In-cell Western assay, pS6RP(S235/236) in PC3 cells. In kind it is cell-based, human. The note with it: Homo sapiens, PC-3, In-cell Western. The essentials:
(§1)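 Overnight-seeded PC3 cells were treated 2 h with serially diluted compound, then fixed and immunostained with phospho-specific primary antibodies and Eu-labelled secondary. Time-resolved Eu signal read at 615 nm (ex 340 nm), normalised by Hoechst 33258 staining (ex 355/em 460 nm); IC50 from sigmoidal dose-response fit.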

In assay [3] the test system is PC3 cells. Nature of the assay: XTT assay for cell viability, PC3 cells. In kind it is cell-based, human. The note with it: Homo sapiens, PC-3, cell viability. The method in brief:
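PC3 cells seeded at 1000 cells/well, grown 24 h, then exposed to serial dilutions of compound for 96 h. Viability read by XTT dye at 37° C, absorbance 465 nm. EC50 from sigmoidal dose-response fit.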
In general terms: Formazan colour is commonly taken as a measure of viable cells.

Assay [4] deals with PC3 cells. In words: In vivo efficacy study (tumor growth suppression), PC3 xenograft. The note with it: PC3 xenograft mice, after 14 days of dosing at 40 mg/kg bid po. Here is the method: PC3 cells were cultured at 37° C. in a 5% CO2 incubator using Hams F12 K medium. Five million (5×10^6) cells were implanted subcutaneously to the right flank of athymic male mice (Harlan, age: 6-7 weeks, weight: about 20 g). Tumor bearing mice were randomized when the tumor volume reached about 100 mm^3. Ten mice were used per group. Dosage regimen of compounds of formula (I) were scheduled on the basis of the PK, PK-PD and maximum tolerated dose studies. Compounds of formula (I) were formulated using HPCD in PBS, pH 7.4 and dosed orally (dose volume, 10 mL/kg). Solutions of the compounds were prepared immediately before dosing the animals. A vehicle control and a reference compound were included along with test compounds.
The tumor size was measured on alternate days using Vernier® calipers. Assuming tumors to be ellipsoid, the tumor volume was calculated using the formula: V=(D×d^2)/2 […]
Changes in tumor volume (Δ volumes) for each treated (T) and control (C) group were calculated by subtracting the mean tumor volume on the first day of treatment (starting day) from the mean tumor volume on the specified observation day. […]
Percentage tumor growth inhibition was calculated as [100−% T/C]. Percentage body weight change was calculated as [(Body weight on specified observation day−Body weight on starting day)/Body weight on starting day]×100. […]

The next assay concerns the target PI3 kinase isoform β (Homo sapiens, UniProt P42338). Nature of the assay: PI3 Kinase TR-FRET assay, isoform β. In kind it is biochemical. The following applies: read-out: inhibition of PI3 kinase isoform β, IC50. Here is the method:
The ability of compounds of the invention to inhibit PI3K activity was determined in a homogeneous TR-FRET assay using a PI3K assay kit (Millipore, USA; cat #33-016) according to manufacturer's instructions. PI3-Kinases (isoforms α, β, γ and δ) catalyze the phosphorylation of phosphatidylinositol, PIP2 to PIP3 in the presence of ATP and Mg^2+. The PIP3 product is detected by displacement of biotin-PIP3 from an energy transfer complex consisting of Europium labeled anti-GST monoclonal antibody, a GST-tagged PH domain, biotinylated PIP3 and Streptavidin-APC. Excitation of Europium in the complex results in an energy transfer to the APC and a fluorescence emission at 665 nm. The PIP3 product displaces biotin-PIP3 from the complex resulting in a loss of energy transfer and thus a decrease in signal.
To test for the ability of compounds to inhibit the activity of PI3Kα (wild-type), exemplary compounds of formula (I) were dissolved in DMSO and directly distributed into 384-well plates at a volume of 0.5 μL. 14.5 μL of P110/P85α/PIP2 mixture in buffer (obtained from the Millipore kit) containing MgCl2 (40 mM) and DTT (5 mM) was added to compound wells and incubated for 60 min at room temperature. P110/P85α was expressed in SF9 insect cells and purified nickel column extraction. Five ng of wild-type P110/P85α was used in the assay. The kinase reaction was started by the addition of ATP. The assay concentrations of both PIP2 and ATP were 10 μM. The reaction mixture was incubated for 30 min at room temperature and was terminated by the addition of stop mix and detection mix. Fluorescence was measured at 615 and 665 nm upon excitation at 340 nm in a Victor™ V5 fluorometer (Perkin Elmer, USA). The fluorescence emission ratio at 665 to 615 nm, proportional to the kinase activity, was plotted against the compound concentration to generate dose-response curves and IC50 values were determined using GraphPad Prism® 5 software.
The activity of PI3 kinase isoforms β, γ and δ were assayed in a similar manner to the assay protocol described above for PI3Kα, by substituting the appropriate p110/p85 isoform for the p110α/p85α. Compounds of formula (I) caused inhibition of PI3 kinase isoforms β, γ and δ as determined by these assays. For example, the compounds of examples 3, 51, 54, 111, 113, 115, and 253 each caused inhibition of PI3 kinase isoform β with IC50 values <50 nM. The compounds of examples 104, 133, 146 and 152 each caused inhibition of PI3 kinase isoform β with IC50 values <500 nM. The compounds of examples 3, 51, 54, 104, 111, 113, 115, 133, 253, and 152 each caused inhibition of PI3 kinase isoform γ with IC50 values <500 nM. […] The compounds of examples 2, 3, 51, 54, 111, 113, and 253 each caused inhibition of PI3 kinase isoform […] with IC50 values >1 μM.

Assay [5] relates to pAKT(5473) (phosphorylated at serine 473), PC3 cells. Nature of the assay: In-cell Western assay, pAKT(5473) in PC3 cells. Type of assay: cell-based. The note with it: Homo sapiens, PC-3, In-cell Western, read-out: pAkt-S473. The method in brief: as §1

T1 sequence (P42336 whole entry): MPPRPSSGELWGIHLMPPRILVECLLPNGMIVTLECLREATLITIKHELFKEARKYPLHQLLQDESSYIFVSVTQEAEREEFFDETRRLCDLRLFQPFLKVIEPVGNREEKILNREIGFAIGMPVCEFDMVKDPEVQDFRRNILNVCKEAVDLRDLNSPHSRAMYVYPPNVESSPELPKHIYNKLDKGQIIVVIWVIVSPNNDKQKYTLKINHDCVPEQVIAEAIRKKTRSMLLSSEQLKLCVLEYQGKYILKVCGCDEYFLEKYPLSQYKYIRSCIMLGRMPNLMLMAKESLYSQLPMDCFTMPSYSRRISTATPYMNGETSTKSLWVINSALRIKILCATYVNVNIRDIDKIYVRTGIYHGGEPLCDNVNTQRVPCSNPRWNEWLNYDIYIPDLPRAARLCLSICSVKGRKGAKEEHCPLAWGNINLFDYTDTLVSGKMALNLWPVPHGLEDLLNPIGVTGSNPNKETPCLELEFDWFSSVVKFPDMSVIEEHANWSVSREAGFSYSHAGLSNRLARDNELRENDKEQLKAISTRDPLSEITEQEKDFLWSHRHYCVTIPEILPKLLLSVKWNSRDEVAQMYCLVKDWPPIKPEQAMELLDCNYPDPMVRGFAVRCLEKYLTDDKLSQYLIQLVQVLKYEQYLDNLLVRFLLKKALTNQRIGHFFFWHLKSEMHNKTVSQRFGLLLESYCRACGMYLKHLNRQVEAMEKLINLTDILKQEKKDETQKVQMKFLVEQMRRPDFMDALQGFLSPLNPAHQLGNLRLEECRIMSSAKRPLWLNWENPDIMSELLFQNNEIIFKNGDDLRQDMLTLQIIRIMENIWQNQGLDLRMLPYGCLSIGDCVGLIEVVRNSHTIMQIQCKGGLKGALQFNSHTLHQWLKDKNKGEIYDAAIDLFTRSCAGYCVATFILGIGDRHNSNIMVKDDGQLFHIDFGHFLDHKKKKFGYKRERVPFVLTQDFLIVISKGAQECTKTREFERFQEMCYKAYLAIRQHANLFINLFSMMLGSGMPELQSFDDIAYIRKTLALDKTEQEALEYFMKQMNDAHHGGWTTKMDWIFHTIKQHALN
T1 sequence (P27986 whole entry partner): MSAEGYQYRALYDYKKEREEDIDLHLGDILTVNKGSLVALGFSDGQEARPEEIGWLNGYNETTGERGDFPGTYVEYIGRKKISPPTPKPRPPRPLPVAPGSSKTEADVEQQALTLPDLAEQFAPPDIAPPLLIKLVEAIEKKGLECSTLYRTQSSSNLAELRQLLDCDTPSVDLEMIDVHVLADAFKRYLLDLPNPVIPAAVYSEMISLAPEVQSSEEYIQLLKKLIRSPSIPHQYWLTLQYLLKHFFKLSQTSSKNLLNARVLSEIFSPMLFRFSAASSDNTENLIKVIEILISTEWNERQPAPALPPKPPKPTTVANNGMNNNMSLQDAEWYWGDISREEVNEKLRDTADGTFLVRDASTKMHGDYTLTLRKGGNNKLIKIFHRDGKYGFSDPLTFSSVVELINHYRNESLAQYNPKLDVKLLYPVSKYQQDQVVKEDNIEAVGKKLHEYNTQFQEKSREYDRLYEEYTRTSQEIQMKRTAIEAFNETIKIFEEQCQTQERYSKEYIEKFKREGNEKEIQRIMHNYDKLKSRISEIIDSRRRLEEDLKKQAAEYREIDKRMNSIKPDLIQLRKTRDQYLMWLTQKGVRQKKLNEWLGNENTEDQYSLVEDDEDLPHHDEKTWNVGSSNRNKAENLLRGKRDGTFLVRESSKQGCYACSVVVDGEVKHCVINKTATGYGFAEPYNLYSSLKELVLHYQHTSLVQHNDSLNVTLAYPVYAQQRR
Sequence of PI3 kinase isoform β (P42338 whole entry, the tested form may be a part, canonical isoform): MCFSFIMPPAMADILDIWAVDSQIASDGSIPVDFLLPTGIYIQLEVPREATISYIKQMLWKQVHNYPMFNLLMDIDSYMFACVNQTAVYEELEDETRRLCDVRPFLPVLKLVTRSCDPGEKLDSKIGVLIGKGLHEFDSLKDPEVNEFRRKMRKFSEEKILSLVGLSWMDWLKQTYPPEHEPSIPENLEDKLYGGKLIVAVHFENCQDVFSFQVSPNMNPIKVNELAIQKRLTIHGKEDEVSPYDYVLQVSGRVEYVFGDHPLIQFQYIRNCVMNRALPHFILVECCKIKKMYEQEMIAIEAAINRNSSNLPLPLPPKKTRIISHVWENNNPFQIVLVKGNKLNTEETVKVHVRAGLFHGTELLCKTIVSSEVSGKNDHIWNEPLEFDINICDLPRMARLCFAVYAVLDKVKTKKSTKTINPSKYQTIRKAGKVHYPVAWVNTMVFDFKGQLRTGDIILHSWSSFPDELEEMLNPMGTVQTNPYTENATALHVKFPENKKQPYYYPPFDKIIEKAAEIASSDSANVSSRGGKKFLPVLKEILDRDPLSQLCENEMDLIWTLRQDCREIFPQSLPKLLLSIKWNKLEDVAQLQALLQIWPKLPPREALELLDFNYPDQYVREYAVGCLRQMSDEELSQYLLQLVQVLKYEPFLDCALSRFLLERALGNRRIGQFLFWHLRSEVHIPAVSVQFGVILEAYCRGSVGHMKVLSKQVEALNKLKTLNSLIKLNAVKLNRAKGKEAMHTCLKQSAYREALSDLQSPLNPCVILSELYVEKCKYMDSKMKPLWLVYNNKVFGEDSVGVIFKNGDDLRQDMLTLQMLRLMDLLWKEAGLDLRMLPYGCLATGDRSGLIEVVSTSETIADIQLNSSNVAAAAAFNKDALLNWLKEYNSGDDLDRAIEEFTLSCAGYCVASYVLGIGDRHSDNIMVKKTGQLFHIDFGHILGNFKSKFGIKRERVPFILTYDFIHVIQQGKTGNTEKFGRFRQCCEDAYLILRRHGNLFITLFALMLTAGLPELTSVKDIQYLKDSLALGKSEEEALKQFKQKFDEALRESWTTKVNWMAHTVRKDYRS
Sequence of PI3 kinase isoform β (P27986 whole entry partner, the tested form may be a part, canonical isoform): as the sequence (P27986 whole entry partner) above

On to `CN(C)C(=O)c1ccc(NC(=O)Nc2ccc(-c3nc(N4CCOCC4)c4ncc(-c5cnn(C)c5)cc4n3)cc2F)cc1` [Example 82, 4-(3-(2-fluoro-4-(7-(1-methyl-1H-pyrazol-4-yl)-4-morpholino-pyrido[3,2-d]pyrimidin-2-yl)phenyl)ureido)-N,N-dimethyl-benzamide], for which the IC50 in assay [1] is below 50 nM; on mTOR kinase, below 50 nM; in assay [2] it was 201 to 10000 nM; in the assay with PC3 cells [3] it was 201 to 10000 nM. In addition, the “tumor growth inhibition relative to vehicle control group” value in the assay on PC3 cells [4] is “about 60%”.
Regarding `CN(C)C(=O)c1ccc(NC(=O)Nc2ccc(-c3nc(N4CCOCC4)c4ncc(-c5cccc(S(C)(=O)=O)c5)cc4n3)cc2F)cc1` [Example 104, 4-(3-(2-fluoro-4-(7-(3-(methylsulfonyl)phenyl)-4-morpholino-pyrido[3,2-d]pyrimidin-2-yl)phenyl)ureido)-N,N-dimethyl-benzamide], the IC50 in assay [1] is below 50 nM; on PI3 kinase isoform β, below 500 nM; at mTOR kinase it was below 50 nM; in assay [5], below 100 nM; in assay [2], 201 to 10000 nM; with PC3 cells [3], 201 to 10000 nM.
Take `CN(C)C(=O)c1ccc(NC(=O)Nc2ccc(-c3nc(N4CCOCC4)c4ccc(-c5ccc(CO)o5)cc4n3)cc2)cc1` [Example 183, 4-(3-(4-(7-(5-(hydroxymethyl)furan-2-yl)-4-morpholino-quinazolin-2-yl)phenyl)ureido)-N,N-dimethyl-benzamide]: the IC50 in assay [1] was below 50 nM; at mTOR kinase it was below 50 nM; in assay [2], 201 to 10000 nM; in the assay with PC3 cells [3] it was 201 to 10000 nM. In the assay with PC3 cells [4], the “tumor growth inhibition relative to vehicle control group” value is “about 60%”.
